Test results: patent publication US10632117B2, “GSK3B and uses thereof in the diagnostic and treatment of hypopigmentation disorders” (INSERM (INSTITUT NATIONAL DE LA SANTE ET DE LA RECHERCHE …, priority 2014, dated 2020)

How the values were obtained:
Format in all cases: cell-based, human
[1] = system: depigmented skin from vitiligo patients; test: Ex vivo culture of lesional vitiligo skin biopsies, RT-qPCR of melanoblast / pre-melanocyte markers; settings: 14 days, SKL2001 40 μM; for mRNA level of early melanoblast marker Brn2 / mRNA level of early melanoblast marker PAX3: CHIR99021 3 μM, LiCl 20 μM
Experimental: (§1) For vitiligo skin biopsies, after verification of the absence of melanocytes with Wood's lamp, two or three 6 mm biopsies composed of dermis plus epidermis were taken into lesional skin from vitiligo patients (n=9). The biopsies are rapidly put on transwell chamber of 0.4 μm (Becton Dickinson) and kept on semi liquid culture conditions in “Skin long term culture medium” (Biopredic). The skin was maintained at 37° C. in a wet 5% CO2, atmosphere.
(§2) The culture medium supplemented with Forskolin (Sigma Aldrich), LiCl (Sigma Aldrich), CHIR99021 (Calbiochem) or SKL2001 (Calbiochem) was changed […] during 14 days.
(§3) mRNA from melanocytes and keratinocytes was extracted with RNeasy kit (Qiagen). The biopsies are cut and disrupted with tissue ruptor (Qiagen) and the mRNA was extracted with RNeasy kit (Qiagen). cDNA were synthesized from 300 ng to 1 μg of mRNA with the Reverse Transcription System (Promega). Relative quantification of gene expression was measured by real time qPCR with Sybr green reagent (Life technology) on Step one system.
(§4) In order to induce the differentiation of melanocyte stem cells, they pharmacologically activated the WNT pathway in vitiligo skin cultured ex vivo as shown previously. They used two methods to activate the WNT pathway: a WNT agonist (SKL2001) and two GSK3β inhibitors: lithium chloride (LiCl) and a commercial specific inhibitor (CHIR99021). They biopsied 9 vitiligo subjects (6 mm punch) on diverse body locations ([…], 2 on trunk, 2 on leg, 1 on arm and 1 on axilla) and treated the ex vivo culture model during 14 days with a systemic stimulation every other day with the WNT activators.
(§5) They evaluated the activation of WNT pathway by the mRNA level of WNTs (TCF/LEF1 and the melanogenesis pathway by the mRNA level of MITF, DCT, PAX3 and BRn2) within the skin.

WNT pathway = test: Ex vivo culture of lesional vitiligo skin biopsies with WNT pathway activators, RT-qPCR of WNT family and LEF; settings: 14 days, stimulation every other day, CHIR99021 3 μM, LiCl 20 μM, SKL2001 40 μM
Experimental: as §1, §2, §3, §4, §5

[2] = system: melanocyte stem cells in depigmented skin from vitiligo patients; test: Ex vivo depigmented vitiligo skin, immunohistostaining for co-expression of DCT and PAX3; settings: 14 days, every other day, SKL2001 40 μM, CHIR99021 3 μM, LiCl 20 μM, immunofluorescence
Experimental: Depigmented skin from vitiligo patients [A (control culture medium)] were stimulated in ex vivo culture with WNT agonist SKL2001 (40 μM) (B), GSK3β inhibitor CHIR99021 (3 μM) (C) or GSK3β inhibitor LiCl 20 μM (D) every other day to activate the WNT pathway. After 14 days, the skin response was analyzed by immunohistostaining with pre-melanocytes markers: a DCT staining (green) and PAX3 staining (red).
as §1, §2
Biopsies were fixed with 4% formol, embedded in paraffin, cut with microtome of […] sections and fixed on superfrost plus slides (Thermoscientific). […]

[3] = system: whole skin in ex vivo culture; test: Oxidative stress (H2O2) in whole skin in ex vivo culture: qPCR of LEF and WNT family; settings: skin biopsies ex vivo, 24 hours, 25 to 100 μM H2O2
Experimental: (§6) NHM (A) and NHK (B) and whole skin in ex vivo culture (C) were stimulated 24 hours with 25 to 100 μM of H2O2. After mRNA extraction, a reverse transcription was performed and the relative gene expression of LEF1 was analyzed with qPCR.
(§7) (A) NHM, (B) NHK and (C) whole skin in ex vivo culture were stimulated 24 hours with 25 to 100 μM of H2O2. After mRNA extraction, a reverse transcription was performed and the relative gene expression of WNT family was analyzed with qPCR.
Skin from abdominoplasty surgery was used to the development of the ex vivo skin culture model. The subcutaneous fat was removed and biopsies of 6 mm were done in the skin composed of dermis and epidermis.
as §3

NHK (keratinocytes) = test: Oxidative stress (H2O2) in NHK: qPCR of LEF and WNT family, TCF/LEF luciferase reporter; settings: 24 hours, 25 to 100 μM H2O2
Experimental: as §6, §7
(§8) NHMs and NHKs are obtained from the foreskin of phototype IV children as described previously. Briefly, epidermal cells are obtained by overnight digestion of the skin in a dispase solution (Roche) at 4° C. followed by the digestion of the epidermis in a trypsin/EDTA solution during 20 minutes at 37° C. […]
(§9) mRNA from melanocytes and keratinocytes was extracted with RNeasy kit (Qiagen). […] Relative quantification of gene expression was measured by real time qPCR with Sybr green reagent (Life technology) on Step one system.
(§10) NHK and NHM were co-infected with the lentivirus TCF/LEF Reporter Luciferase and Cignal Lenti Reporter Control Renilla (Qiagen) and the infected cells were selected with Puromycin for 14 days. NHM and NHK selected were stimulated 24 h with SKL2001 and H2O2 and the TCF/LEF activity was measured with Dual Luciferase Reporter Assay System (Promega).

NHM (melanocytes) = test: Oxidative stress (H2O2) in NHM: qPCR of LEF and WNT family, TCF/LEF luciferase reporter; settings: 24 hours, 25 to 100 μM H2O2
Experimental: as §6, §7, §8, §9, §10

expression of LEF (NHK (keratinocytes))	expression of the majority of WNT (NHK (keratinocytes))	expression of LEF (NHM (melanocytes))	expression of the majority of WNT (NHM (melanocytes))	SMILES	mRNA level of early melanoblast marker Brn2 [1]	mRNA level of early melanoblast marker PAX3 [1]	level of MITF mRNA [1]	relative expression of LEF mRNA (WNT pathway)	relative expression of WNT family mRNA (WNT pathway)	co-expression of DCT and PAX3 (differentiation of melanocyte stem cells into pre-melanocytes) [2]	expression of LEF [3]	expression of most of the WNT family [3]
–	–	–	–	O=C(NCCCn1ccnc1)c1cc(-c2ccco2)on1 [SKL2001]	up-regulated	up-regulated	increased	increase	increase	melanoblast in differentiation within the dermis	–	–
decreased	decreased	decreased	decreased	OO [H2O2]	–	–	–	–	–	–	decrease	decrease
–	–	–	–	Cc1c[nH]c(-c2cnc(NCCNc3ccc(C#N)cn3)nc2-c2ccc(Cl)cc2Cl)n1 [CHIR99021]	up-regulated	up-regulated	–	increase	increase	melanoblast in differentiation within the dermis	–	–
